Laboratory results published in publication PMC7101356, “Cross-site and cross-platform variability of automated patch clamp assessments of drug effects on human cardiac currents in recombinant cells” (Scientific Reports, 2020).

How the values were obtained:
peak hNav1.5 = target: T1, peak hNav1.5 (Homo sapiens, UniProt Q14524); assay: Automated patch clamp, peak hNav1.5 current block; format: cell-based
T1 construct: expressed in transfected cells; host or cells: HEK293 or CHO, depending on site
Description: Peak current was measured during the depolarizing step to −15 mV. Leak current was measured after applying a saturating concentration of a blocker such as lidocaine (2 mM) at the end of each experiment to completely block hNav1.5 current.
Concentration-response relationships for each test article were independently investigated, i.e., each cell received only one test article, typically evaluating multiple concentrations in a cumulative fashion (lowest to highest concentrations). However, some platforms tested only one concentration per well. Each concentration response was based on a minimum of four concentrations, with a minimum of three wells used for each concentration. In cases of high variability, more cells per concentration were recorded. Prior to drug addition, cells received an addition of vehicle to measure non-test article-related effects such as addition artifacts. At the end of the experiment, a supramaximal concentration of a known inhibitory reference compound was applied to assess leak current and appropriate responsiveness of the test system.
(§1) The steady state current at each concentration was used to determine the concentration-response relationships. Mean concentration-response data were fitted to a standard sigmoidal four-parameter logistic equation (GraphPad Prism 7; GraphPad Inc., La Jolla, CA) of the form: Y=Bottom+(Top−Bottom)/(1+10^∧(LogIC50−X)∗HillSlope) where Y is the current inhibition (in % of pre-drug control), X is the logarithm of drug concentration, and IC50 is the drug concentration producing half-maximal current inhibition. Curve fitting was performed using the following constraints: Top = 100%, Bottom = 0%, Hill Slope <2. No curve fitting was performed in cases with an obvious lack of a concentration-dependent current inhibition and/or small effect size (approximately ≤20%).

late hNav1.5 = target: T2, late hNav1.5 (Homo sapiens, UniProt Q14524); assay: Automated patch clamp, late hNav1.5 current block (ATX-II activated); format: cell-based
T2 construct: expressed in transfected cells; host or cells: HEK293 or CHO, depending on site

hERG [1] = target: T3, hERG (Homo sapiens, UniProt Q12809); assay: in vitro; settings: hERG K+ current inhibition, Mean
T3 sequence (Q12809 whole entry): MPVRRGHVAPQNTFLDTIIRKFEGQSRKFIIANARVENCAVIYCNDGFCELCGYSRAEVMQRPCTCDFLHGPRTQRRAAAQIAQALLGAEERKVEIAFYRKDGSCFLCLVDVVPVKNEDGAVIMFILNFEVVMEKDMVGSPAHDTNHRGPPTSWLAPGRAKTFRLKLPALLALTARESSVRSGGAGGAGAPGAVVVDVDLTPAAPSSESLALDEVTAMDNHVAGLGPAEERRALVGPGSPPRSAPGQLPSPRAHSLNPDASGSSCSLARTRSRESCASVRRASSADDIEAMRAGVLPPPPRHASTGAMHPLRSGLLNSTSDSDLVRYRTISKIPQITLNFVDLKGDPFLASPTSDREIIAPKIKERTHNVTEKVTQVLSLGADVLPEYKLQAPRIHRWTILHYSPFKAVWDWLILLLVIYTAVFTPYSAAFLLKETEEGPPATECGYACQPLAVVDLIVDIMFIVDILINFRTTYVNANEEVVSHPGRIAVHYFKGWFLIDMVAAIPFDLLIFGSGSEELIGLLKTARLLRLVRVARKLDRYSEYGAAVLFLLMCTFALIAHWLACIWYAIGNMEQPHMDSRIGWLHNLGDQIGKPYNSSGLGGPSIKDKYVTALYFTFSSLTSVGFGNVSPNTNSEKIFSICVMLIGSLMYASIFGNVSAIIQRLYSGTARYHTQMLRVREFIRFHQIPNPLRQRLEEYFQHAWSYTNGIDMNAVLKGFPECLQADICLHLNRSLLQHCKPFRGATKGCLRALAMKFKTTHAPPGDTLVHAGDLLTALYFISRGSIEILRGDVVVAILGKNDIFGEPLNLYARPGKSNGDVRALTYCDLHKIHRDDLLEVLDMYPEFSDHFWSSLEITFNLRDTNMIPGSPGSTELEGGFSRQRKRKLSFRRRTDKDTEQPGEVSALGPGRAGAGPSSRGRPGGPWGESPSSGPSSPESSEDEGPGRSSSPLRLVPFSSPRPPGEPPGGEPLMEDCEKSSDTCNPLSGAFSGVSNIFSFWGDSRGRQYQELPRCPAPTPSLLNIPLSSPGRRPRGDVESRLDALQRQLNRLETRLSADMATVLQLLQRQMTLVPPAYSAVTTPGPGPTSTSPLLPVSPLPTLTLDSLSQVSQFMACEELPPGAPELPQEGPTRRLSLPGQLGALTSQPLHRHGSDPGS

[2] = based on CiPA evaluations; cited from earlier work
hCav1.2 = hCav1.2 (Homo sapiens, UniProt Q13936); assay: Automated patch clamp, hCav1.2 current block
Chain of hCav1.2 (Q13936 whole entry): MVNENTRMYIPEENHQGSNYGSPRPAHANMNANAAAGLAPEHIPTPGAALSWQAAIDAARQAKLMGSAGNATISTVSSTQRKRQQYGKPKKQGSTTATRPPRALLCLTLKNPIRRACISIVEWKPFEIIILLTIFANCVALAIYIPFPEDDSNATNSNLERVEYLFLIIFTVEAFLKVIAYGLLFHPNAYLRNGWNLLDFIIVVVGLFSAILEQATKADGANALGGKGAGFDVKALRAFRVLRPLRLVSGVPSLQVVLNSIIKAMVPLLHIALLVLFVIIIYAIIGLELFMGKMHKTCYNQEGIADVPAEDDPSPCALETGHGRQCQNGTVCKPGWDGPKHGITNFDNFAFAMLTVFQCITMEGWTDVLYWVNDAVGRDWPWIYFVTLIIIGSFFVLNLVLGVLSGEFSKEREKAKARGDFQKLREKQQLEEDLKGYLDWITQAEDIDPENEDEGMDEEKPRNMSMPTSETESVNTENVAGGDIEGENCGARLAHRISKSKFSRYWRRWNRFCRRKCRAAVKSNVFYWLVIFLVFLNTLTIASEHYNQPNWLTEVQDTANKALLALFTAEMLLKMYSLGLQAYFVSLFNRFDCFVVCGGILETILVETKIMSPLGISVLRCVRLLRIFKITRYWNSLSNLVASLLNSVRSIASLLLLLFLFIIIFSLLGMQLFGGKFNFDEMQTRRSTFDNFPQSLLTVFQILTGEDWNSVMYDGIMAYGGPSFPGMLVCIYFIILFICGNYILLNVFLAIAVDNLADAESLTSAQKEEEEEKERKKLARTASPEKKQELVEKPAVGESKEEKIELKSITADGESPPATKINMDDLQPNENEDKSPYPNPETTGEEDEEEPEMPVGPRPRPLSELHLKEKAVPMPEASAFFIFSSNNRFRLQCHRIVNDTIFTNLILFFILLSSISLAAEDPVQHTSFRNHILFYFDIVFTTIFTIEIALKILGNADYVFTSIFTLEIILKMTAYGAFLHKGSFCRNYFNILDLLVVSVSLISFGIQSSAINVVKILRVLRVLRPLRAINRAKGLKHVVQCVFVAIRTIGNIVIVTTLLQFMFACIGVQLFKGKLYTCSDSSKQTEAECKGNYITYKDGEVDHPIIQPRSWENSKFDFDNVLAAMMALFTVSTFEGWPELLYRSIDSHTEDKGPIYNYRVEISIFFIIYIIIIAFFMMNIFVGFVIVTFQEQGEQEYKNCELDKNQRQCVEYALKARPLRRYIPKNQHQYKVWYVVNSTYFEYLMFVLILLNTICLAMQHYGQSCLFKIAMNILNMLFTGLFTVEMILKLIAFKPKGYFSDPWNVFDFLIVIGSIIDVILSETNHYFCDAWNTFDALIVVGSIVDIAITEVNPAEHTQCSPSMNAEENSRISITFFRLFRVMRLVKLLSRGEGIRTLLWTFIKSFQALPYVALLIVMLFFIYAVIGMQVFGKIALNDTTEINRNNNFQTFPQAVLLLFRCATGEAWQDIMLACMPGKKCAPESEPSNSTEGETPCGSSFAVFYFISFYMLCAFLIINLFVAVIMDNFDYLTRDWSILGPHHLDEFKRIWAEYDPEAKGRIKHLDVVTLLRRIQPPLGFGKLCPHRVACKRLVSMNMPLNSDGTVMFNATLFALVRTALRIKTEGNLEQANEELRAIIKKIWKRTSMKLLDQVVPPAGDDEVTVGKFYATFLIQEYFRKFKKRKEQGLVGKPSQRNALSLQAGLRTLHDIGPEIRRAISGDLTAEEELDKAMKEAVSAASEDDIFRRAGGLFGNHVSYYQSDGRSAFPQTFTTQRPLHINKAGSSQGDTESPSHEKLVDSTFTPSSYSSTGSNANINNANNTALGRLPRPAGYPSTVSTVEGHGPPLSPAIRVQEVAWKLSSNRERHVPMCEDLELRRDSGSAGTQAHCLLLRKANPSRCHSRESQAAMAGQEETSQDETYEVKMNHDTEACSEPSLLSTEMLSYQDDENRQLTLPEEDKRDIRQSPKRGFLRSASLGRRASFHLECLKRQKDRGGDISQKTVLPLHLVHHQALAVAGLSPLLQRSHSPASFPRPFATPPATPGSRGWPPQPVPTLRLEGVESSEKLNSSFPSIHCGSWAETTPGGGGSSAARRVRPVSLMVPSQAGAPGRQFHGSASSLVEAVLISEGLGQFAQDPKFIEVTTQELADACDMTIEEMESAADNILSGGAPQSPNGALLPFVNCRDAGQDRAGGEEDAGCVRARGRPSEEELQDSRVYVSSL
Chain of hCav1.2 (Q08289 whole entry partner): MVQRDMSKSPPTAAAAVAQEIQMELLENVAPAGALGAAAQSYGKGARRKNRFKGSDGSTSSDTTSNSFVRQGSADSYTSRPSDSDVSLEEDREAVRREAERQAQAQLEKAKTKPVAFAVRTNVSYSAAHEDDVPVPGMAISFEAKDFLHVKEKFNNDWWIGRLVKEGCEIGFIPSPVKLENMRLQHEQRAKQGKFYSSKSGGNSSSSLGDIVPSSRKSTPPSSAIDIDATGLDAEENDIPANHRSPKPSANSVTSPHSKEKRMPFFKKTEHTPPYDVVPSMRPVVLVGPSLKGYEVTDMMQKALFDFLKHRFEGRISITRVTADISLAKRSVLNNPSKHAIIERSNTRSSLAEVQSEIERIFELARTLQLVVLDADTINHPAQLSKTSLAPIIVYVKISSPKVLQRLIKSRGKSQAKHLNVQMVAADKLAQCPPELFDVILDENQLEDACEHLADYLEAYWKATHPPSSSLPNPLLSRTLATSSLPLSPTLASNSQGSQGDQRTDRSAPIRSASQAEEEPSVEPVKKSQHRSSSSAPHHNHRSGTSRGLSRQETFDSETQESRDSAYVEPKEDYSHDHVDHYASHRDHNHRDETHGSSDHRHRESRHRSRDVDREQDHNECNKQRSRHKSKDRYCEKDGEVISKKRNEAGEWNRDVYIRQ
Chain of hCav1.2 (P54289 25-956 partner limits assumed): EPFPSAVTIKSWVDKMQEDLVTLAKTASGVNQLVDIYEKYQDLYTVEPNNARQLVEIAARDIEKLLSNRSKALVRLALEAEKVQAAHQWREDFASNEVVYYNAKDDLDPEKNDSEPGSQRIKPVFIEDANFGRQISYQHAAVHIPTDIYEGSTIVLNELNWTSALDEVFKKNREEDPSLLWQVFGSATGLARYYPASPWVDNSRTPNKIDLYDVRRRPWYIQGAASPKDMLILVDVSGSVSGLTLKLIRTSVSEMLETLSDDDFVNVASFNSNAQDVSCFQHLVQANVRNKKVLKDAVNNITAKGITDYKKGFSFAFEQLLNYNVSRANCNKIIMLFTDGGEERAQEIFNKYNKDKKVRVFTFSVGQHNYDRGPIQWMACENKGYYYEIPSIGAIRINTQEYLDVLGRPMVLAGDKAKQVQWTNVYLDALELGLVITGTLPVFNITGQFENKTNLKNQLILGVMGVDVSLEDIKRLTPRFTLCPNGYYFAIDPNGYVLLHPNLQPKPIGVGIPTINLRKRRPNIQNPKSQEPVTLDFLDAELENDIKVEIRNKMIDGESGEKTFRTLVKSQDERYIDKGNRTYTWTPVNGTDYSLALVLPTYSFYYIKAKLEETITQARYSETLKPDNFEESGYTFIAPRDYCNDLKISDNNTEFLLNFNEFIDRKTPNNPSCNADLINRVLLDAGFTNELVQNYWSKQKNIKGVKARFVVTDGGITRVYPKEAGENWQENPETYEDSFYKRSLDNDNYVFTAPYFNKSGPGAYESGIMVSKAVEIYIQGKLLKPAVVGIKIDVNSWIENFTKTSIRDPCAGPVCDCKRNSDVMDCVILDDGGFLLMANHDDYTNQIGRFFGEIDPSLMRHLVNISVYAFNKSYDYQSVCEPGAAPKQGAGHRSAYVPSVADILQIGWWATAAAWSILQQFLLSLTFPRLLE
Chain of hCav1.2 (P54289 957-1103 partner limits assumed): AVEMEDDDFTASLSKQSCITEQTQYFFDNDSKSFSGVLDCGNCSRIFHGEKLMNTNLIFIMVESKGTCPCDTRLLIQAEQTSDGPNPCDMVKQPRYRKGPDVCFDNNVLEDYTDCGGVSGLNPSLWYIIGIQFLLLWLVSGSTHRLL
Description: Peak current was measured during the step to 0 mV. Leak current was measured after applying a saturating concentration of a blocker such as cadmium (200 µM) at the end of each experiment to completely block hCav1.2 current.
Concentration-response relationships for each test article were independently investigated, i.e., each cell received only one test article, typically evaluating multiple concentrations in a cumulative fashion (lowest to highest concentrations). However, some platforms tested only one concentration per well. Each concentration response was based on a minimum of four concentrations, with a minimum of three wells used for each concentration. In cases of high variability, more cells per concentration were recorded. Prior to drug addition, cells received an addition of vehicle to measure non-test article-related effects such as addition artifacts. At the end of the experiment, a supramaximal concentration of a known inhibitory reference compound was applied to assess leak current and appropriate responsiveness of the test system. While it was recommended that a separate group of cells (n ≥ 3) be recorded for each experimental day to determine the baseline response to vehicle and to address day-to-day variability, this was not verified.
These criteria were applied to all APC platforms.
as §1

hERG [3] = target: T3, hERG; parameters: expressed in transfected cells; host or cells: HEK293 or CHO, depending on site (site s06, Milnes protocol: HEK293); settings: physiologic temperatures; cited from earlier work
[4] = site_platform s06_p4, 1.00E-09 mol/L
[5] = site_platform s06_p4, 3.00E-07 mol/L
[6] = site_platform s07_p6, 1.00E-09 mol/L
[7] = site_platform s07_p6, 3.00E-07 mol/L
[8] = site_platform s13_p2, 1.00E-09 mol/L
[9] = site_platform s14_p1, 3.00E-07 mol/L

## COc1cc(N)c(Cl)cc1C(=O)NC1CCN(CCCOc2ccc(F)cc2)CC1OC (stereo not drawn) [cis, cisapride]
Peak hNav1.5; no inhibition = no obvious concentration-dependent current block and/or no curve fitting performed, all sites
  peak hNav1.5 Na+ current inhibition (result in words): no inhibition
Peak hNav1.5; site_platform s01_p1
  log IC50, peak hNav1.5 Na+ current inhibition: no inh.
Peak hNav1.5; site_platform s01_p1, 1.00E-09 mol/L
  Peak hNav1.5 Na+ current inhibition, Mean: 55.1%
Peak hNav1.5; site_platform s01_p1, 3.00E-07 mol/L
  Peak hNav1.5 Na+ current inhibition, Mean: 41.7%
Peak hNav1.5; site_platform s02_p2
  log IC50, peak hNav1.5 Na+ current inhibition: no inh.
Peak hNav1.5; site_platform s02_p2, 1.00E-09 mol/L
  Peak hNav1.5 Na+ current inhibition, Mean: 0.1%
Peak hNav1.5; site_platform s02_p2, 3.00E-07 mol/L
  Peak hNav1.5 Na+ current inhibition, Mean: 4.3%
Peak hNav1.5; site_platform s04_p3
  log IC50, peak hNav1.5 Na+ current inhibition: no inh.
Peak hNav1.5; site_platform s04_p3, 1.00E-09 mol/L
  Peak hNav1.5 Na+ current inhibition, Mean: 1.4%
Peak hNav1.5; site_platform s04_p3, 3.00E-07 mol/L
  Peak hNav1.5 Na+ current inhibition, Mean: 9.8%
Peak hNav1.5; site_platform s06_p4
  log IC50, peak hNav1.5 Na+ current inhibition: no inh.
Peak hNav1.5; [4]
  Peak hNav1.5 Na+ current inhibition, Mean: -1.5%
Peak hNav1.5; [5]
  Peak hNav1.5 Na+ current inhibition, Mean: 6.3%
Peak hNav1.5; site_platform s07_p6
  log IC50, peak hNav1.5 Na+ current inhibition: no inh.
Peak hNav1.5; [6]
  Peak hNav1.5 Na+ current inhibition, Mean: 3.2%
Peak hNav1.5; [7]
  Peak hNav1.5 Na+ current inhibition, Mean: 12.5%
Peak hNav1.5; site_platform s10_p3
  log IC50, peak hNav1.5 inhibition: no inh.
Peak hNav1.5; site_platform s10_p3, 1.00E-09 mol/L
  Peak hNav1.5 Na+ current inhibition, Mean: -1.1%
Peak hNav1.5; site_platform s10_p3, 3.00E-07 mol/L
  Peak hNav1.5 Na+ current inhibition, Mean: 11.3%
Peak hNav1.5; site_platform s11_p1
  log IC50, peak hNav1.5 inhibition: no inh.
Peak hNav1.5; site_platform s11_p1, 1.00E-09 mol/L
  Peak hNav1.5 Na+ current inhibition, Mean: 8.6%
Peak hNav1.5; site_platform s11_p1, 3.00E-07 mol/L
  Peak hNav1.5 Na+ current inhibition, Mean: 10.0%
Peak hNav1.5; site_platform s12_p2
  log IC50, peak hNav1.5 inhibition: no inh.
Peak hNav1.5; site_platform s12_p2, 1.00E-09 mol/L
  Peak hNav1.5 Na+ current inhibition, Mean: -0.2%
Peak hNav1.5; site_platform s12_p2, 3.00E-07 mol/L
  Peak hNav1.5 Na+ current inhibition, Mean: 6.8%
Peak hNav1.5; site_platform s13_p2
  log IC50, peak hNav1.5 inhibition: no inh.
Peak hNav1.5; [8]
  Peak hNav1.5 Na+ current inhibition, Mean: -1.8%
Peak hNav1.5; site_platform s14_p1
  log IC50, peak hNav1.5 inhibition: no inh.
Peak hNav1.5; [9]
  Peak hNav1.5 Na+ current inhibition, Mean: -0.4%
Peak hNav1.5; site_platform s15_p1
  log IC50, peak hNav1.5 inhibition: no inh.
Peak hNav1.5; site_platform s15_p1, 1.00E-09 mol/L
  Peak hNav1.5 Na+ current inhibition, Mean: 10.3%
Peak hNav1.5; site_platform s15_p1, 3.00E-07 mol/L
  Peak hNav1.5 Na+ current inhibition, Mean: 21.4%
Peak hNav1.5; site_platform s16_p3
  log IC50, peak hNav1.5 inhibition: no inh.
Peak hNav1.5; site_platform s16_p3, 1.00E-09 mol/L
  Peak hNav1.5 Na+ current inhibition, Mean: 3.1%
Peak hNav1.5; site_platform s16_p3, 3.00E-07 mol/L
  Peak hNav1.5 Na+ current inhibition, Mean: 13.4%
Peak hNav1.5; site_platform s17_p1
  log IC50, peak hNav1.5 inhibition: no inh.
Peak hNav1.5; site_platform s17_p1, 3.00E-07 mol/L
  Peak hNav1.5 Na+ current inhibition, Mean: 1.3%
Peak hNav1.5; site_platform s18_p1
  log IC50, peak hNav1.5 inhibition: no inh.
Peak hNav1.5; site_platform s18_p1, 1.00E-09 mol/L
  Peak hNav1.5 Na+ current inhibition, Mean: -22.5%
Peak hNav1.5; site_platform s18_p1, 3.00E-07 mol/L
  Peak hNav1.5 Na+ current inhibition, Mean: 1.0%
Peak hNav1.5; site_platform s19_p3
  log IC50, peak hNav1.5 inhibition: no inh.
Peak hNav1.5; site_platform s19_p3, 1.00E-09 mol/L
  Peak hNav1.5 Na+ current inhibition, Mean: 6.7%
Peak hNav1.5; site_platform s19_p3, 3.00E-07 mol/L
  Peak hNav1.5 Na+ current inhibition, Mean: 20.0%
Late hNav1.5; site_platform s06_p4
  log IC50, late hNav1.5 inhibition: no inh.
Late hNav1.5; [4]
  Late hNav1.5 Na+ current inhibition, Mean: -0.7%
Late hNav1.5; [5]
  Late hNav1.5 Na+ current inhibition, Mean: 31.8%
Late hNav1.5; site_platform s07_p6
  log IC50, late hNav1.5 inhibition: no inh.
Late hNav1.5; [6]
  Late hNav1.5 Na+ current inhibition, Mean: 4.3%
Late hNav1.5; [7]
  Late hNav1.5 Na+ current inhibition, Mean: -17.0%
Late hNav1.5; site_platform s13_p2
  log IC50, late hNav1.5 inhibition: no inh.
Late hNav1.5; [8]
  Late hNav1.5 Na+ current inhibition, Mean: -16.7%
Late hNav1.5; site_platform s13_p2, 3.00E-07 mol/L
  Late hNav1.5 Na+ current inhibition, Mean: 7.2%
Late hNav1.5; site_platform s14_p1
  log IC50, late hNav1.5 inhibition: no inh.
Late hNav1.5; site_platform s14_p1, 1.00E-09 mol/L
  Late hNav1.5 Na+ current inhibition, Mean: -6.9%
Late hNav1.5; [9]
  Late hNav1.5 Na+ current inhibition, Mean: -6.3%
hERG [1]
  inhibition at 4 min, 1e-09 mol/L: 7.2%
  inhibition at 4 min, 3e-07 mol/L: 68.5%
  inhibition at 7 min, 1e-09 mol/L: 12%
[2]
  TdP Risk Category: Intermediate
hCav1.2; log IC50, half-maximal inhibitory concentration, site s16_p3
  IC50: 447 nM
hCav1.2; site s01_p1
  log IC50, half-maximal inhibitory concentration: no inh.
hCav1.2; site s01_p1, 1.00E-09 mol/L
  Peak hCav1.2 Ca2+ current inhibition, Mean: 7.4%
hCav1.2; site s01_p1, 3.00E-07 mol/L
  Peak hCav1.2 Ca2+ current inhibition, Mean: 8.1%
hCav1.2; site s02_p2, corrected for rundown
  log IC50, half-maximal inhibitory concentration: no inh.
hCav1.2; site s02_p2, corrected for rundown, 1.00E-09 mol/L
  Peak hCav1.2 Ca2+ current inhibition, Mean: -5.7%
hCav1.2; site s02_p2, corrected for rundown, 3.00E-07 mol/L
  Peak hCav1.2 Ca2+ current inhibition, Mean: 14.5%
hCav1.2; site s06_p4
  log IC50, half-maximal inhibitory concentration: no inh.
hCav1.2; site s06_p4, 1.00E-09 mol/L
  Peak hCav1.2 Ca2+ current inhibition, Mean: -8.1%
hCav1.2; site s06_p4, 3.00E-07 mol/L
  Peak hCav1.2 Ca2+ current inhibition, Mean: -6.0%
hCav1.2; site s11_p1
  log IC50, half-maximal inhibitory concentration: no inh.
hCav1.2; site s11_p1, 1.00E-09 mol/L
  Peak hCav1.2 Ca2+ current inhibition, Mean: 7.8%
hCav1.2; site s11_p1, 3.00E-07 mol/L
  Peak hCav1.2 Ca2+ current inhibition, Mean: 10.4%
hCav1.2; site s14_p1
  log IC50, half-maximal inhibitory concentration: no inh.
hCav1.2; site s14_p1, 1.00E-09 mol/L
  Peak hCav1.2 Ca2+ current inhibition, Mean: -10.3%
hCav1.2; site s14_p1, 3.00E-07 mol/L
  Peak hCav1.2 Ca2+ current inhibition, Mean: -19.9%
hCav1.2; site s16_p3
  nH, Hill slope: 0.24
hCav1.2; site s16_p3, 1.00E-09 mol/L
  Peak hCav1.2 Ca2+ current inhibition, Mean: 20.1%
hCav1.2; site s16_p3, 3.00E-07 mol/L
  Peak hCav1.2 Ca2+ current inhibition, Mean: 49.1%
hCav1.2; site s18_p1
  log IC50, half-maximal inhibitory concentration: no inh.
hCav1.2; site s18_p1, 1.00E-09 mol/L
  Peak hCav1.2 Ca2+ current inhibition, Mean: 2.8%
hCav1.2; site s18_p1, 3.00E-07 mol/L
  Peak hCav1.2 Ca2+ current inhibition, Mean: -16.5%

## O=c1[nH]c2ccccc2n1C1CCN(CCCC(c2ccc(F)cc2)c2ccc(F)cc2)CC1 [pimozide]
hERG [3]
  difference of hERG IC50 between two manual patch clamp laboratories: 44 fold
